Laboratory results reported in PubChem BioAssay (NCI).
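A five-concentration, 48-hour dose response in 96-well plates underlies each endpoint, interpolated linearly between surrounding concentrations. GI50: concentration for 50% inhibition of growth. TGI is the concentration that stops growth completely.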

What was measured:
Experiment in all cases: DTP human tumour cell line panel, 48 h
MALME-3M melanoma = system: MALME-3M melanoma
SNB-19 CNS = system: SNB-19 CNS
SN12C renal = system: SN12C renal
LOX IMVI melanoma = system: LOX IMVI melanoma
SK-MEL-28 melanoma = system: SK-MEL-28 melanoma
SF-268 CNS = system: SF-268 CNS
UACC-62 melanoma = system: UACC-62 melanoma
SNB-75 CNS = system: SNB-75 CNS
HS 578T breast = system: HS 578T breast
TK-10 renal = system: TK-10 renal
HCT-15 colon = system: HCT-15 colon
MDA-MB-435 = system: MDA-MB-435
RPMI-8226 leukemia = system: RPMI-8226 leukemia
A498 renal = system: A498 renal
NCI-H460 lung = system: NCI-H460 lung
KM12 colon = system: KM12 colon
HT29 colon = system: HT29 colon
T-47D breast = system: T-47D breast
M14 melanoma = system: M14 melanoma
RXF 393 renal = system: RXF 393 renal
ACHN renal = system: ACHN renal
NCI-H522 lung = system: NCI-H522 lung
SW-620 colon = system: SW-620 colon
OVCAR-3 ovarian = system: OVCAR-3 ovarian
UACC-257 melanoma = system: UACC-257 melanoma
SK-OV-3 ovarian = system: SK-OV-3 ovarian
HOP-92 NSCLC = system: HOP-92 NSCLC
NCI/ADR-RES ovarian = system: NCI/ADR-RES ovarian
MOLT-4 leukemia = system: MOLT-4 leukemia
MCF7 breast = system: MCF7 breast
OVCAR-8 ovarian = system: OVCAR-8 ovarian
COLO 205 colon = system: COLO 205 colon
HOP-62 NSCLC = system: HOP-62 NSCLC
HL-60(TB) leukemia = system: HL-60(TB) leukemia
OVCAR-4 ovarian = system: OVCAR-4 ovarian
SR leukemia = system: SR leukemia
A549 NSCLC = system: A549 NSCLC
NCI-H23 lung = system: NCI-H23 lung
HCC-2998 colon = system: HCC-2998 colon
DU-145 prostate = system: DU-145 prostate
CCRF-CEM leukemia = system: CCRF-CEM leukemia
MDA-MB-231 breast = system: MDA-MB-231 breast
SF-539 CNS = system: SF-539 CNS
SK-MEL-5 melanoma = system: SK-MEL-5 melanoma
UO-31 renal = system: UO-31 renal
BT-549 breast = system: BT-549 breast
NCI-H226 lung = system: NCI-H226 lung
K-562 leukemia = system: K-562 leukemia
SF-295 CNS = system: SF-295 CNS
786-0 renal = system: 786-0 renal
IGROV1 ovarian = system: IGROV1 ovarian
CAKI-1 renal = system: CAKI-1 renal
HCT-116 colon = system: HCT-116 colon
PC-3 prostate = system: PC-3 prostate
U251 CNS = system: U251 CNS
OVCAR-5 ovarian = system: OVCAR-5 ovarian

FC(F)(F)c1cccc(Nc2nc3ccccc3nc2Nc2cccc(C(F)(F)F)c2)c1
GI50 (MALME-3M melanoma): 2.13 µM | TGI (MALME-3M melanoma): 6.33 µM | GI50 (SNB-19 CNS): 0.732 µM | TGI (SNB-19 CNS): 15.4 µM | GI50 (SN12C renal): 0.442 µM | TGI (SN12C renal): 2.85 µM | GI50 (LOX IMVI melanoma): 1.5 µM | TGI (LOX IMVI melanoma): 3.07 µM | GI50 (SK-MEL-28 melanoma): 1.71 µM | TGI (SK-MEL-28 melanoma): 4.73 µM | GI50 (SF-268 CNS): 1.29 µM | TGI (SF-268 CNS): 13 µM | GI50 (UACC-62 melanoma): 1.56 µM | TGI (UACC-62 melanoma): 5.47 µM | GI50 (SNB-75 CNS): 1.15 µM | TGI (SNB-75 CNS): 6.71 µM | GI50 (HS 578T breast): 2.67 µM | TGI (HS 578T breast): 7.88 µM | GI50 (TK-10 renal): 1.47 µM | TGI (TK-10 renal): 3.8 µM | GI50 (HCT-15 colon): 0.515 µM | TGI (HCT-15 colon): 2.05 µM | GI50 (MDA-MB-435): 1.03 µM | TGI (MDA-MB-435): 2.88 µM | GI50 (RPMI-8226 leukemia): 0.797 µM | TGI (RPMI-8226 leukemia): 3.95 µM | GI50 (A498 renal): 0.663 µM | TGI (A498 renal): 3.99 µM | GI50 (NCI-H460 lung): 0.457 µM | TGI (NCI-H460 lung): 10.1 µM | GI50 (KM12 colon): 1.99 µM | TGI (KM12 colon): 4.95 µM | GI50 (HT29 colon): 0.391 µM | TGI (HT29 colon): 2.03 µM | GI50 (T-47D breast): 1.41 µM | TGI (T-47D breast): 4.73 µM | GI50 (M14 melanoma): 0.972 µM | TGI (M14 melanoma): 3.15 µM | GI50 (RXF 393 renal): 0.882 µM | TGI (RXF 393 renal): 2.34 µM | GI50 (ACHN renal): 0.415 µM | TGI (ACHN renal): 2.23 µM | GI50 (NCI-H522 lung): 0.335 µM | TGI (NCI-H522 lung): 1.63 µM | GI50 (SW-620 colon): 1.71 µM | TGI (SW-620 colon): 4.01 µM | GI50 (OVCAR-3 ovarian): 0.444 µM | TGI (OVCAR-3 ovarian): 4.3 µM | GI50 (UACC-257 melanoma): 2.02 µM | TGI (UACC-257 melanoma): 5.54 µM | GI50 (SK-OV-3 ovarian): 0.437 µM | TGI (SK-OV-3 ovarian): 1.58 µM | GI50 (HOP-92 NSCLC): 1.36 µM | TGI (HOP-92 NSCLC): 4.67 µM | GI50 (NCI/ADR-RES ovarian): 1.98 µM | TGI (NCI/ADR-RES ovarian): 11.4 µM | GI50 (MOLT-4 leukemia): 1.51 µM | TGI (MOLT-4 leukemia): 4.34 µM | GI50 (MCF7 breast): 2.04 µM | TGI (MCF7 breast): 9.63 µM | GI50 (OVCAR-8 ovarian): 0.745 µM | TGI (OVCAR-8 ovarian): 5.57 µM | GI50 (COLO 205 colon): 0.682 µM | TGI (COLO 205 colon): 2.18 µM | GI50 (HOP-62 NSCLC): 0.762 µM | TGI (HOP-62 NSCLC): 2.17 µM | GI50 (HL-60(TB) leukemia): 1.86 µM | TGI (HL-60(TB) leukemia): 4.77 µM | GI50 (OVCAR-4 ovarian): 2.93 µM | TGI (OVCAR-4 ovarian): 14.6 µM | GI50 (SR leukemia): 1.11 µM | TGI (SR leukemia): 3.36 µM | GI50 (A549 NSCLC): 0.368 µM | TGI (A549 NSCLC): 2.81 µM | GI50 (NCI-H23 lung): 1.72 µM | TGI (NCI-H23 lung): 6.31 µM | GI50 (HCC-2998 colon): 2.93 µM | TGI (HCC-2998 colon): 7.45 µM | GI50 (DU-145 prostate): 0.732 µM | TGI (DU-145 prostate): 13 µM | GI50 (CCRF-CEM leukemia): 0.71 µM | TGI (CCRF-CEM leukemia): 3.84 µM | GI50 (MDA-MB-231 breast): 0.993 µM | TGI (MDA-MB-231 breast): 2.73 µM | GI50 (SF-539 CNS): 0.959 µM | TGI (SF-539 CNS): 3.12 µM | GI50 (SK-MEL-5 melanoma): 0.481 µM | TGI (SK-MEL-5 melanoma): 1.7 µM | GI50 (UO-31 renal): 1.98 µM | TGI (UO-31 renal): 11 µM | GI50 (BT-549 breast): 2.71 µM | TGI (BT-549 breast): 7.6 µM | GI50 (NCI-H226 lung): 1.21 µM | TGI (NCI-H226 lung): 2.98 µM | GI50 (K-562 leukemia): 1.28 µM | TGI (K-562 leukemia): 5.61 µM | GI50 (SF-295 CNS): 1.92 µM | TGI (SF-295 CNS): 5.41 µM | GI50 (786-0 renal): 1.81 µM | TGI (786-0 renal): 3.91 µM | GI50 (IGROV1 ovarian): 3.2 µM | TGI (IGROV1 ovarian): 16.8 µM | GI50 (CAKI-1 renal): 1.02 µM | TGI (CAKI-1 renal): 8.78 µM | GI50 (HCT-116 colon): 0.361 µM | TGI (HCT-116 colon): 1.52 µM | GI50 (PC-3 prostate): 0.495 µM | TGI (PC-3 prostate): 7.61 µM | GI50 (U251 CNS): 0.427 µM | TGI (U251 CNS): 1.91 µM | GI50 (OVCAR-5 ovarian): 0.454 µM | TGI (OVCAR-5 ovarian): 3.39 µM
